What follows are compounds tested against T1, EGFR (Homo sapiens, UniProt P00533) (assay: EGFR ELISA assay (in vitro kinase activity, EGFR captured from A431 cell lysate)).
T1 construct: Add 7 ug A431 cell lysate per well (EGFR source); endogenous in cells; host or cells: A431
Type: biochemical
Set-up: concentration or dose not given beside the values
Outline: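 EGFR from A431 lysate was captured on anti-EGFR antibody-coated plates and preincubated with compounds for 30 min. Autophosphorylation ran 5 min with 3 uM ATP and 5 mM MnCl2 (final), stopped with 20 mM EDTA. Phosphotyrosine was detected by anti-pTyr ELISA with ABTS/H2O2, read at 410 nm.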

T1 sequence (P00533 25-1210): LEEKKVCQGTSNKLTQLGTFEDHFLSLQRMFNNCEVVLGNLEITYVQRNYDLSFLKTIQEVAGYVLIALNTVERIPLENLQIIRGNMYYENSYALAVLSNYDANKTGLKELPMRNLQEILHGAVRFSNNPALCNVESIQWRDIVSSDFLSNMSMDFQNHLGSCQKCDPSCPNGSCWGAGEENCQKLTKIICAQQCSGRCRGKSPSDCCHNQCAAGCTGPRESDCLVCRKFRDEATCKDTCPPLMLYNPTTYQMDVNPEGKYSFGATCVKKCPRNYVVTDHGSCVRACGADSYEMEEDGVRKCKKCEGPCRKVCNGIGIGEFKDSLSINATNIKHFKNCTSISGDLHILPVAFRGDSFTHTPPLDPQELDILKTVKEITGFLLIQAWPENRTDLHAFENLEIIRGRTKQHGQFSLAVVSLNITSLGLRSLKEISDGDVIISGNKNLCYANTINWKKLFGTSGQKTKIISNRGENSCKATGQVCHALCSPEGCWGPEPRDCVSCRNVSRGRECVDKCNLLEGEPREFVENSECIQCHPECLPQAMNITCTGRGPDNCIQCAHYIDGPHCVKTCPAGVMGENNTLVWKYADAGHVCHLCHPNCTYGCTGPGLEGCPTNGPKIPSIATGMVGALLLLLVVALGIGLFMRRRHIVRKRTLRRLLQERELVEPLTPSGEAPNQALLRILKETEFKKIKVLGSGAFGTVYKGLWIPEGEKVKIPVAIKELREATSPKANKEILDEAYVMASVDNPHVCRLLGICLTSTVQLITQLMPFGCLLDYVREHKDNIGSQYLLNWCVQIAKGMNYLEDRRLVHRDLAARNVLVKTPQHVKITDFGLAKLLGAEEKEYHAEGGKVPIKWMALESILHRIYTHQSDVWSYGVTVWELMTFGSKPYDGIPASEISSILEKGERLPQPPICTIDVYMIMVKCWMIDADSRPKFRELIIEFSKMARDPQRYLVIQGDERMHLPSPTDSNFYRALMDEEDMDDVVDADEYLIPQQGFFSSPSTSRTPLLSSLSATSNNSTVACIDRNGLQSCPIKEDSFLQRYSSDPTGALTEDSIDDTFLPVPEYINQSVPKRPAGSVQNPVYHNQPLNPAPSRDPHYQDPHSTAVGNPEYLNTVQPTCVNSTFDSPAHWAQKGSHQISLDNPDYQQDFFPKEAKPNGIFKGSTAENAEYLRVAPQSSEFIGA

Structure (SMILES)	Biochem EGFR %Inhibition [%]
O=C1Nc2ccc(S(=O)(=O)N3CCOCC3)cc2C1=Cc1ccc(Br)cc1 [10717/F08]	-23.4
O=C1Nc2ccc(CCCl)cc2C1=Cc1cccs1 [10717/G03]	18.8
O=C1Nc2c(Br)cc(Br)cc2C1=Cc1cc(O)c2c(c1O)CCCC2 [10726/A07]	88.7
O=C1Nc2ccc(CCCl)cc2C1=Cc1sccc1Br [10725/G02]	-20.5
COc1cccc(O)c1C=C1C(=O)Nc2ccc(S(=O)(=O)N3CCOCC3)cc21 [10717/F10]	-26.4
O=C1Nc2ccc(CCCl)cc2C1=Cc1ccc(N2CCOCC2)cc1 [10725/G08]	-13.7
CNS(=O)(=O)c1ccc2c(c1)C(=Cc1sccc1Br)C(=O)N2 [10725/D02]	-23.9
O=C1Nc2ccc(S(=O)(=O)Nc3ccc(C(F)(F)F)cc3)cc2C1=Cc1c[nH]cn1 [10725/E11]	-36.0
Cc1c(Br)ccc2c1C(=Cc1c(Br)cnn1-c1ccc(Cl)cc1)C(=O)N2 [10725/C10]	5.3
Cc1c(Br)ccc2c1C(=Cc1cc(O)c3c(c1O)CCCC3)C(=O)N2 [10726/C07]	40.8
Cc1cc(C=C2C(=O)Nc3ccc(S(=O)(=O)N4CCOCC4)cc32)[nH]n1 [10725/F05]	-18.9
O=C1Nc2ccc(S(=O)(=O)Nc3ccc(C(F)(F)F)cc3)cc2C1=Cc1sccc1Br [10725/E02]	4.3
Cc1cc(C=C2C(=O)Nc3ccc(CCCl)cc32)[nH]n1 [10725/G05]	68.7
Cc1[nH]c(C=C2C(=O)Nc3ccc(S(=O)(=O)N4CCOCC4)cc32)c(Br)c1Br [10717/F11]	91.2
COc1cc(C)cc(O)c1C=C1C(=O)Nc2ccc(S(=O)(=O)N3CCOCC3)cc21 [10725/F06]	-37.8
O=C1Nc2ccc(CCCl)cc2C1=Cc1c[nH]cn1 [10725/G11]	-32.4
O=C1Nc2ccc(S(=O)(=O)Nc3ccc(C(F)(F)F)cc3)cc2C1=Cc1ccc(N2CCOCC2)cc1 [10725/E08]	14.2
COC(=O)Cc1c(Cl)[nH]c(C=C2C(=O)Nc3ccc(Br)c(C)c32)c1C(=O)OC [10725/C09]	23.6
Cc1ccc(C=C2C(=O)Nc3ccc(S(=O)(=O)N4CCOCC4)cc32)s1 [10717/F07]	-14.3
CCOc1ccccc1C=C1C(=O)Nc2ccc(CCCl)cc21 [10717/G02]	32.3
Cc1ccc(C=C2C(=O)Nc3ccc(S(=O)(=O)Nc4ccc(C(F)(F)F)cc4)cc32)o1 [10725/E04]	31.2
O=C1Nc2ccccc2C1=C1C(=O)Nc2c(Br)cc(Br)cc21 [10726/A09]	-6.3
COc1ccc(Br)c(C=C2C(=O)Nc3ccc(CCCl)cc32)c1O [10725/G03]	-2.5
CNS(=O)(=O)c1ccc2c(c1)C(=Cc1ccc(N3CCN(C=O)CC3)cc1)C(=O)N2 [10725/D07]	-25.8

Structure (SMILES)	Biochem EGFR %Inhibition [%]
Cc1cc(C=C2C(=O)Nc3ccc(S(=O)(=O)Nc4ccc(C(F)(F)F)cc4)cc32)[nH]n1 [10725/E05]	-5.5
O=C1Nc2ccc(S(=O)(=O)N3CCOCC3)cc2C1=Cc1c[nH]cn1 [10725/F11]	20.8
COc1cc(C)cc(O)c1C=C1C(=O)Nc2ccc(CCCl)cc21 [10725/G06]	-19.9
O=C1Nc2ccc(F)cc2C1=C1C(=O)Nc2ccc(I)cc21 [10726/B08]	23.6
CNS(=O)(=O)c1ccc2c(c1)C(=Cc1c(Br)ccc(OC)c1O)C(=O)N2 [10725/D03]	-2.5
O=C1Nc2ccc(I)cc2C1=Cc1cc(O)c2c(c1O)CCCC2 [10726/B07]	72.4
Cc1c(Br)ccc2c1C(=Cc1ccc(N3CCN(C=O)CC3)cc1)C(=O)N2 [10725/C07]	-16.5
CNS(=O)(=O)c1ccc2c(c1)C(=Cc1ccc(N3CCOCC3)cc1)C(=O)N2 [10725/D08]	20.0
O=C1Nc2ccc(S(=O)(=O)N3CCOCC3)cc2C1=Cc1ccc[nH]1 [10717/F09]	1.8
CCOC(=O)c1[nH]c(C=C2C(=O)Nc3c(Br)cc(Br)cc32)c(C(=O)OC)c1C [10726/A03]	-12.5
Cc1c(Br)ccc2c1C(=Cc1ccc(N3CCOCC3)cc1)C(=O)N2 [10725/C08]	-11.9
Cc1cc(C=C2C(=O)Nc3ccc(Br)c(C)c32)[nH]n1 [10725/C05]	-21.9
O=CN1CCN(c2ccc(C=C3C(=O)Nc4ccc(CCCl)cc43)cc2)CC1 [10725/G07]	-25.8
COc1cc(C)cc(O)c1C=C1C(=O)Nc2ccc(S(=O)(=O)Nc3ccc(C(F)(F)F)cc3)cc21 [10725/E06]	-17.7
O=CN1CCN(c2ccc(C=C3C(=O)Nc4ccc(S(=O)(=O)N5CCOCC5)cc43)cc2)CC1 [10725/F07]	16.4
Cc1ccc(C=C2C(=O)Nc3ccc(Br)c(C)c32)o1 [10725/C04]	31.8
CNS(=O)(=O)c1ccc2c(c1)C(=Cc1cc(C)n[nH]1)C(=O)N2 [10725/D05]	-19.7
COC(=O)Cc1c(Cl)[nH]c(C=C2C(=O)Nc3ccc(S(=O)(=O)N4CCOCC4)cc32)c1C(=O)OC [10725/F09]	32.2
CCOC(=O)c1[nH]c(C=C2C(=O)Nc3ccc(I)cc32)c(C(=O)OC)c1C [10726/B03]	3.5
COc1ccc(C=C2C(=O)Nc3c(Br)cc(Br)cc32)cc1 [10726/A11]	6.2
COC(=O)Cc1c(Cl)[nH]c(C=C2C(=O)Nc3ccc(S(=O)(=O)Nc4ccc(C(F)(F)F)cc4)cc32)c1C(=O)OC [10725/E09]	31.4
O=C1Nc2c(Br)cc(Br)cc2C1=Cc1ccc(F)cc1 [10717/A05]	16.6
Cc1cc(C=C2C(=O)Nc3c(Br)cc(Br)cc32)cc(C(C)(C)C)c1O [10726/A04]	40.8
CNS(=O)(=O)c1ccc2c(c1)C(=Cc1ccc(C)o1)C(=O)N2 [10725/D04]	4.3

Structure (SMILES)	Biochem EGFR %Inhibition [%]
Cc1cn(C)cc1C=C1C(=O)Nc2ccc(I)cc21 [10726/B06]	6.6
Cc1c(Br)ccc2c1C(=Cc1sccc1Br)C(=O)N2 [10725/C02]	-43.4
COc1ccc(Br)c(C=C2C(=O)Nc3ccc(Br)c(C)c32)c1O [10725/C03]	-12.7
Cc1c(Br)ccc2c1C(=Cc1ccc(Br)o1)C(=O)N2 [10726/C05]	16.7
Cc1cc(C=C2C(=O)Nc3ccc(I)cc32)cc(C(C)(C)C)c1O [10726/B04]	71.1
O=C1Nc2ccc(S(=O)(=O)N3CCOCC3)cc2C1=Cc1c(Br)cnn1-c1ccc(Cl)cc1 [10725/F10]	3.7
COc1ccc(C=C2C(=O)Nc3ccc(I)cc32)cc1 [10726/B11]	39.4
CNS(=O)(=O)c1ccc2c(c1)C(=Cc1c(Br)cnn1-c1ccc(Cl)cc1)C(=O)N2 [10725/D10]	11.7
COC(=O)Cc1c(Cl)[nH]c(C=C2C(=O)Nc3ccc(CCCl)cc32)c1C(=O)OC [10725/G09]	6.5
O=C1Nc2ccc(I)cc2C1=Cc1ccc(Br)o1 [10726/B05]	49.0
COc1cc(C)cc(O)c1C=C1C(=O)Nc2ccc(Br)c(C)c21 [10725/C06]	-11.5
O=C1Nc2ccc(S(=O)(=O)N3CCOCC3)cc2C1=Cc1sccc1Br [10725/F02]	-3.7
O=C1Nc2ccc(S(=O)(=O)N3CCOCC3)cc2C1=Cc1ccc(N2CCOCC2)cc1 [10725/F08]	15.4
O=C1Nc2c(Br)cc(Br)cc2C1=Cc1ccc(Br)o1 [10726/A05]	-28.4
Cc1ccc(C=C2C(=O)Nc3ccc(CCCl)cc32)o1 [10725/G04]	-12.3
CCOC(=O)c1[nH]c(C=C2C(=O)Nc3ccc(Br)c(C)c32)c(C(=O)OC)c1C [10726/C03]	29.8
CNS(=O)(=O)c1ccc2c(c1)C(=Cc1[nH]c(Cl)c(CC(=O)OC)c1C(=O)OC)C(=O)N2 [10725/D09]	4.3
O=C1Nc2ccc(F)cc2C1=C1C(=O)Nc2c(Br)cc(Br)cc21 [10726/A08]	-28.4
Cc1c(Br)ccc2c1C(=Cc1c[nH]cn1)C(=O)N2 [10725/C11]	-22.1
Cc1ccc(C=C2C(=O)Nc3ccc(S(=O)(=O)N4CCOCC4)cc32)o1 [10725/F04]	-49.6
COc1ccc(Br)c(C=C2C(=O)Nc3ccc(S(=O)(=O)Nc4ccc(C(F)(F)F)cc4)cc32)c1O [10725/E03]	-10.3
Cc1cc(C=C2C(=O)Nc3ccc(Br)c(C)c32)cc(C(C)(C)C)c1O [10726/C04]	58.4
O=CN1CCN(c2ccc(C=C3C(=O)Nc4ccc(S(=O)(=O)Nc5ccc(C(F)(F)F)cc5)cc43)cc2)CC1 [10725/E07]	12.5

— EP1247803A2, “Indolinone compounds suitable for modulation of protein kinases” (Sugen, Inc., priority 1996, dated 1998)
